Test results from US12473289B2, “Heterocyclic compounds as delta-5 desaturase inhibitors and methods of use” (Amgen Inc., priority 2019, dated 2025).
pIC50: −log10 of the molar value.

How the values were obtained:
Delta-5-Desaturase (D5D) [1] = target: Delta-5-Desaturase (D5D) (Mus musculus (Mouse), UniProt Q920L1); test: In vivo measurement of Delta-5-Desaturase inhibitory activity (plasma AA/DGLA ratio in DIO mice); settings: single oral dose 30 mg/kg, read-out: Average % D5D Inhibition expressed as Plasma Endogenous AA/DGLA Ratio
Method: In vivo Measurement of Delta-5-Desaturase Inhibitory Activity
Diet-induced obese (DIO; Jackson Laboratories strain #3800050) mice were used to screen for pharmacodynamic (PD) activity of test compounds. Generally, 14 to 24 week old DIO mice, were administered test compounds formulated in the vehicle of 2% hydroxypropyl methylcellulose (HPMC) and 1% Tween80. Animals were dosed on body weight by oral gavage with a single dose (30 mg/kg) for PD studies. Necropsy included plasma collection for PUFA analysis. 10 μl of plasma or standards diluted in surrogate matrix (65 g/l bovine serum albumin in Dulbecco's phosphate-buffered saline) were mixed with 10 μl of an internal standard (100 μM alpha-linolenic acid-d14 (ALA-d14, Cayman Chemical)) in a 96 well plate. 100 μl of 2N NAOH was added to the mixture for subsequent saponification at 65° C. for 1 hour. The mixture was then acidified with 50 μl of formic acid followed by two consecutive hexane extractions. Hexane (500 μl) was added and the mixture thoroughly mixed by vortexing, followed by centrifugation at 4,000 rpm for 15 min. The hexane phase was transferred to a new 1 ml 96 well plate and the remaining aqueous layer was extracted with hexane. The organic extracts were combined and the solvent was removed by placing the plate under nitrogen gas at 55° C. 250 μl of 90% methanol was added to the plate followed by vortexing for 2 minutes. 200 μl of the samples were transferred to a new 96 well polypropylene plate. The samples were analyzed on a LC-MS/MS for the following PUFAs: arachidonic acid (AA), dihomo-gamma-linolenic acid (DGLA), with ALA-d14 as the internal standard. Description of the LC-MS/MS method: 5 μl of sample was injected onto a Poroshell 120 EC-C18 3.0×50 mm, 1.9 μm id column. […] The PUFA peak areas were quantified by using the SCIEX Analyst software. […] The relative decrease of the AA/DGLA ratio of the test compound administered group relative to the vehicle administered group was calculated and used as an index for the degree of D5D inhibition.
The results presented in Table 27 were obtained using certain compounds described herein in the in vivo protocol described above.

Delta-5-Desaturase (D5D) [2] = target: Delta-5-Desaturase (D5D) (Homo sapiens (Human), UniProt O60427); test: In vitro measurement of Delta-5-Desaturase inhibitory activity using DGLA-CoA and Arachidonyl-CoA mass spectrometric assays; type: biochemical; settings: membrane preparations of D5D-overexpressing HEK293 6E cells; averaged over at least two independent runs
In short: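 DGLA-CoA and arachidonyl-CoA were read by RapidFire SPE triple-quad MS (negative mode, MRM) after a 1 h ambient-temperature reaction quenched with acetonitrile. Enzyme was D5D-overexpressing HEK293 6E membranes at 10 μg/mL final; substrate solution held 0.01 mM DGLA plus NADH, ATP and CoA. Inhibition was referenced to DMSO and no-enzyme wells; 4PL IC50.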

[3] = tested on: Diet-Induced Obese (DIO) mice; test: Assessment of D5D inhibitor in Diet-Induced Obese (DIO) mice; type: in vivo; settings: for Blood glucose: day 52, 4-hour fasted; for Cholesterol / Insulin / LDL cholesterol / Triglycerides: day 52, plasma; for Fat mass / Lean mass: day 54, EchoMRI; for AA / DGLA: day 56, plasma; for Body weight / Liver weights / epididymal WAT / inguinal WAT: day 56
Description: Assessment of D5D) Inhibitor in Diet-Induced Obese (DIO) Mice
Thirty-six male C57BL/6J DIO mice (Jackson Laboratories, stock No.: 380050) fed high-fat diet (Research Diets, Inc., D12492) for 14 weeks. All animals were given free access to water and chow. Animals were acclimated to per os dosing for 3 days prior to the start of the experiment. Animals were randomized on body weight, fat mass, lean mass, and blood glucose concentrations in to 4 groups of 8 animals per group. Animals were daily dosed per os with either: vehicle (2% hydroxypropyl methyl cellulose, 1% Tween 80 in water), Example 1-68 at 30 mg/kg, Example 1-34 at 10 mg/kg, and Example 1-27 at 10 mg/kg, all compounds were formulated in 2% hydroxypropyl methylcellulose, 1% Tween 80 in water. […] On day 52, a 4-hour fasted blood collection was performed, blood glucose was immediately measured, and plasma samples were created from the remaining blood and used to measure cholesterol, triglycerides, LDL cholesterol, and insulin. On day 54, body composition (EchoMRI) was determined. On day 56 the animals were sacrificed, and plasma was collected for measurement of DGLA and AA concentrations. Liver, epididymal white adipose tissue and inguinal white adipose tissue weights were recorded. Data was analyzed using GraphPad Prism v. 7.04.
All compounds led to weight loss over the course of the experiment (Table 28) compared to vehicle controls. Consistently fat and lean mass was reduced, along with lower inguinal and epididymal white adipose tissue (WAT) weights at necropsy. Blood glucose and plasma insulin levels were both reduced by the FADS1 inhibitors, along with reductions in plasma cholesterol, LDL cholesterol and triglycerides. Evidence of target engagement was established by observing increases in plasma DGLA and decreases in plasma AA.

[4] = day 50-52, 10 mg/kg daily per os

Chain of Delta-5-Desaturase (D5D) (Mus musculus (Mouse), UniProt Q920L1) (Q920L1 whole entry): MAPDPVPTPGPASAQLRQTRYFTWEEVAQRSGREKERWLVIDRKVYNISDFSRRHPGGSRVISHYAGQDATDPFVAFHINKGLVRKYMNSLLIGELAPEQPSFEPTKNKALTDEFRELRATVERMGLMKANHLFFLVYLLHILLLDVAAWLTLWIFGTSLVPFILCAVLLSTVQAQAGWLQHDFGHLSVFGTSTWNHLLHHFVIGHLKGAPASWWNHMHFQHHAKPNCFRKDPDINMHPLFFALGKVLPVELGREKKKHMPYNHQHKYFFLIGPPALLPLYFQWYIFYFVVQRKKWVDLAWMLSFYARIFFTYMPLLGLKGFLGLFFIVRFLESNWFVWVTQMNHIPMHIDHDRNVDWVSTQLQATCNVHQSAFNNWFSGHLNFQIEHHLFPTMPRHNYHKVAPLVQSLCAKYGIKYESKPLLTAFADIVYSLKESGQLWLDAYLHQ
Chain of Delta-5-Desaturase (D5D) (Homo sapiens (Human), UniProt O60427) (O60427 whole entry, species assumed): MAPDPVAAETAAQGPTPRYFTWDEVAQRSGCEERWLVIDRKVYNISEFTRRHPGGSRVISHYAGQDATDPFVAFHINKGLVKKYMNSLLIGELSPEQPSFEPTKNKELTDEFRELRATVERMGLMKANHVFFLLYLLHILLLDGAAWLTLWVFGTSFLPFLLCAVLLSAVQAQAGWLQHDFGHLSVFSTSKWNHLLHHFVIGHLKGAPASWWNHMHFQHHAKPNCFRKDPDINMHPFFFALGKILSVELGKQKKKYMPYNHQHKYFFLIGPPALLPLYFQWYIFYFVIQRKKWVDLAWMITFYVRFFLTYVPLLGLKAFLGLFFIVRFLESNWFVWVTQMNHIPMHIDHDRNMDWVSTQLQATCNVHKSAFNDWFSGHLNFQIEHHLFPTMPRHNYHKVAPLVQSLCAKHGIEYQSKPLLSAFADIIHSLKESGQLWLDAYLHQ

Row | inhibition in vivo at 30 mg/kg (Delta-5-Desaturase (D5D) [1]) | pIC50 (Delta-5-Desaturase (D5D) [2]) | Structure (SMILES) | Food consumption ([3]; day 0-2, 10 mg/kg daily per os) | Food consumption [3, 4] | Blood glucose ([3]; 10 mg/kg daily per os) | Cholesterol ([3]; 10 mg/kg daily per os) | Insulin ([3]; 10 mg/kg daily per os) | LDL cholesterol ([3]; 10 mg/kg daily per os) | Triglycerides ([3]; 10 mg/kg daily per os) | Fat mass ([3]; 10 mg/kg daily per os) | Lean mass ([3]; 10 mg/kg daily per os) | AA ([3]; 10 mg/kg daily per os) | DGLA ([3]; 10 mg/kg daily per os) | Body weight ([3]; 10 mg/kg daily per os) | Liver weights ([3]; 10 mg/kg daily per os) | epididymal WAT ([3]; 10 mg/kg daily per os) | inguinal WAT ([3]; 10 mg/kg daily per os) | further results
1 | 78% | 7.73 | N#Cc1ccn2c(=O)c(-c3cnn(CC(F)(F)C(F)(F)F)c3)c(C(F)(F)F)nc2c1 [Example 1-27, 4-oxo-3-(1-(2,2,3,3,3-pentafluoropropyl)-1H-pyrazol-4-yl)-2-(trifluoromethyl)-4H-pyrido[1,2-a]pyrimidine-8-carbonitrile] | 2.5 ± 0.1 g/day | 3.1 ± 0.1 g/day | 178.8 ± 7.5 mg/dL | 191.3 ± 14.5 mg/dL | 3.3 ± 1.2 ng/mL | 104.6 ± 9.1 mg/dL | 24.1 ± 1.2 mg/dL | 16.9 ± 0.5 g | 28.1 ± 0.5 g | 60.8 ± 1.9 µg/mL | 310.3 ± 13.7 µg/mL | 45.7 ± 1.1 g | 2.8 ± 0.2 g | 1.8 ± 0.1 g | 1.9 ± 0.1 g | 
2 | 66% | 7.51 | COc1ccn2c(=O)c(-c3cnn(CC(F)(F)C(F)(F)F)c3)c(C(F)(F)F)nc2n1 [Example 1-34, 8-methoxy-3-(1-(2,2,3,3,3-pentafluoropropyl)-1H-pyrazol-4-yl)-2-(trifluoromethyl)-4H-pyrimido[1,2-a]pyrimidin-4-one] | 2.2 ± 0.1 g/day | 3.0 ± 0.1 g/day | 150.5 ± 8.3 mg/dL | 177.1 ± 12.6 mg/dL | 0.6 ± 0.2 ng/mL | 88.6 ± 9.2 mg/dL | 15.6 ± 2.3 mg/dL | 7.4 ± 0.9 g | 26.6 ± 0.7 g | 29.4 ± 0.9 µg/mL | 161.4 ± 8.5 µg/mL | 34.7 ± 1.6 g | 2.9 ± 0.3 g | 0.9 ± 0.1 g | 0.8 ± 0.1 g | 
3 | 80% | 7.94 | COc1ccn2c(=O)c(-c3cnn(CC(F)(F)C(F)(F)F)c3)c(C(F)(F)F)nc2c1 [Example 1-68, 8-methoxy-3-(1-(2,2,3,3,3-pentafluoropropyl)-1H-pyrazol-4-yl)-2-(trifluoromethyl)-4H-pyrido[1,2-a]pyrimidin-4-one] |  |  |  |  |  |  |  |  |  |  |  |  |  |  |  | Food consumption ([3]; day 0-2, 30 mg/kg daily per os): 2.7 ± 0.1 g/day; Food consumption ([3]; day 50-52, 30 mg/kg daily per os): 2.6 ± 0.1 g/day; Blood glucose ([3]; 30 mg/kg daily per os): 146.6 ± 7.1 mg/dL; Cholesterol ([3]; 30 mg/kg daily per os): 166.2 ± 7.8 mg/dL; Insulin ([3]; 30 mg/kg daily per os): 1.1 ± 0.2 ng/mL; LDL cholesterol ([3]; 30 mg/kg daily per os): 86.5 ± 12.5 mg/dL; Triglycerides ([3]; 30 mg/kg daily per os): 14.5 ± 1.0 mg/dL; Fat mass ([3]; 30 mg/kg daily per os): 13.3 ± 1.0 g; Lean mass ([3]; 30 mg/kg daily per os): 26.7 ± 0.5 g; AA ([3]; 30 mg/kg daily per os): 38.0 ± 1.6 µg/mL; DGLA ([3]; 30 mg/kg daily per os): 258.4 ± 8.5 µg/mL; Body weight ([3]; 30 mg/kg daily per os): 40.7 ± 1.5 g; Liver weights ([3]; 30 mg/kg daily per os): 2.9 ± 0.2 g; epididymal WAT ([3]; 30 mg/kg daily per os): 1.6 ± 0.1 g; inguinal WAT ([3]; 30 mg/kg daily per os): 1.6 ± 0.2 g
